Results published in patent US10821115B2, “Compounds that inhibit Mcl-1 protein” (priority 2017, dated 2020).
Read-outs that look alike come from different tables or passages of the source.

Test system: human multiple myeloma cell line, OPM-2
Experiment: Cell viability assay (OPM-2 10 FBS), CellTiter-Glo
Format: cell-based
Outline: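 Steps: plate cells at 3000/well in 10% FBS growth medium, add serially diluted compound, incubate 16 h at 37 °C with 5% CO2, add detection reagent and read luminescence after 25 min. A 4-parameter logistic model gives IC50.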

[1] = Homo sapiens, OPM-2, 16 h, read-out: OPM-2 10% FBS IC50 IP, OPM-2 cells, 10% FBS, 16 h incubation
[2] = read-out: OPM-2 10% FBS IC50 IP, OPM-2 cells, 10% FBS, 16 h incubation

| Structure (SMILES) | IC50 [1] | IC50 [2] | further results |
| --- | --- | --- | --- |
| CCO[C@]1(CN2CCN3CCCC[C@@H]3C2)/C=C/C[C@H](C)[C@@H](CCOC)S(=O)(=O)NC(=O)c2ccc3c(c2)N(C[C@@H]2CC[C@H]21)C[C@@]1(CCCc2cc(Cl)ccc21)CO3 [Example 15, (1S,3′R,6′R,7′R,8′E,11′S,12′R)-6-chloro-7′-ethoxy-12′-(2-methoxyethyl)-11′-methyl-7′-((9aR)-octahydro-2H-pyrido[1,2-a]pyrazin-2-ylmethyl)-3,4-dihydro-2H,15′H-spiro[naphthalene-1,22′-[20]oxa[13]thia[1,14]diazatetracyclo[14.7.2.0-3,6˜.0˜19,24˜]pentacosa[8,16,18,24]tetraen]-15′-one 13′,13′-dioxide] | 71 nM | – | – |
| COCC[C@@H]1[C@@H](C)C/C=C/[C@](CN2CCN3CCOC[C@@H]3C2)(OC)[C@@H]2CC[C@H]2CN2C[C@@]3(CCCc4cc(Cl)ccc43)COc3ccc(nc32)C(=O)NS1(=O)=O [Example 20, (1 S,3′R,6′R,7′S,8′E,11′S, 12′R)-6-chloro-7′-((9aS)-hexahydropyrazino[2,1-c][1,4]oxazin-8(1H)-ylmethyl)-7′-methoxy-12′-(2-methoxyethyl)-11′-methyl-3,4-dihydro-2H,15′H-spiro[naphthalene-1,22′-[20]oxa[13]thia[1,14,25]triazatetracyclo[14.7.2.0-3,6˜.0˜19,24˜]pentacosa[8,16,18,24]tetraen]-15′-one 13′,13′-dioxide] | – | 22 nM | – |
| CCO[C@]1(CN2CCN3CCOC[C@@H]3C2)/C=C/C[C@H](C)[C@@H](CCOC)S(=O)(=O)NC(=O)c2ccc3c(c2)N(C[C@@H]2CC[C@H]21)C[C@@]1(CCCc2cc(Cl)ccc21)CO3 [Example 13, (1 S,3′R,6′R,7′R,8′E,11′S,12′R)-6-chloro-7′-ethoxy-7′-((9aS)-hexahydropyrazino[2,1-c][1,4]oxazin-8(1H)-ylmethyl)-12′-(2-methoxyethyl)-11′-methyl-3,4-dihydro-2H,15′H-spiro[naphthalene-1,22′-[20]oxa[13]thia[1,14]diazatetracyclo[14.7.2.0-3,6˜.0˜19,24˜]pentacosa[8,16,18,24]tetraen]-15′-one 13′,13′-dioxide] | 63 nM | – | – |
| CO[C@]1(c2cccnc2F)/C=C/C[C@H](C)[C@@H](C)S(=O)(=O)NC(=O)c2ccc3c(c2)N(C[C@@H]2CC[C@H]21)C[C@@]1(CCCc2cc(Cl)ccc21)CO3 [Example 100325, (1S,3′R,6′R,7′R,8′E,11′S,12′R)-6-chloro-7′-(2-fluoro-3-pyridinyl)-7′-methoxy-11′,12′-dimethyl-3,4-dihydro-2H,15′H-spiro[naphthalene-1,22′-[20]oxa[13]thia[1,14]diazatetracyclo [14.7.2.0~3,6~.0~19,24~]pentacosa[8,16,18,24]tetraen]-15′-one 13′,13′-dioxide] | – | – | IC50 (read-out: OPM-2 10% FBS IC50 IP, OPM-2 cells, 10% FBS, 16 h, CellTiter-Glo): 482 nM |
| C=C(C)C(=O)C[C@]1(OC)/C=C/C[C@H](C)[C@@H](C)S(=O)(=O)NC(=O)c2ccc3c(c2)N(C[C@@H]2CC[C@H]21)C[C@@]1(CCCc2cc(Cl)ccc21)CO3 [Example 100476, (1S,3′R,6′R,7′S,8′E,11′S,12′R)-6-chloro-7′-methoxy-11′,12′-dimethyl-7′-(3-methyl-2-oxo-3-buten-1-yl)-3,4-dihydro-2H,15′H-spiro[naphthalene-1,22′-[20]oxa[13]thia[1,14]diazatetracyclo [14.7.2.0~3,6~.0~19,24~]pentacosa[8,16,18,24]tetraen]-15′-one 13′,13′-dioxide] | – | – | IC50 (Homo sapiens, OPM-2, 16 h, read-out: OPM-2 10% FBS IC50 IP, OPM-2 cells, 10% FBS, 16 h, CellTiter-Glo): 1340 nM |
| CO[C@]1(CN2CCN3CCN(C(C)=O)C[C@@H]3C2)/C=C/C[C@H](C)[C@@H](C)S(=O)(=O)NC(=O)c2ccc3c(c2)N(C[C@@H]2CC[C@H]21)C[C@@]1(CCCc2cc(Cl)ccc21)CO3 (single isomer, unassigned) [Example 229] | – | 96 nM | – |
